ChEMBL document CHEMBL1212812, “Multi-target spectral moment QSAR versus ANN for antiparasitic drugs against different parasite species” (Bioorg Med Chem, 2010)

Experiments:
Plasmodium falciparum = experiment: Antimicrobial activity against Plasmodium falciparum; assay type: functional, organism-based
Entamoeba histolytica = experiment: Antimicrobial activity against Entamoeba histolytica; assay type: functional, organism-based

Compound	IC50 (Plasmodium falciparum)	IC50 (Entamoeba histolytica)
CN(CCCc1ccccc1)CCCC(O)(P(=O)(O)O)P(=O)(O)O	23 µM	45 µM
O=P(O)(O)C(CNc1ccncc1)P(=O)(O)O	200 µM	200 µM
C=P(O)(O)C(Nc1c(F)c(F)c(F)c(F)c1F)P(=O)(O)O (stereo not drawn)	200 µM	200 µM
CC(C)CNC(P(=O)(O)O)P(=O)(O)O [(ISOBUTYLAMINO)METHYLENEDIPHOSPHONIC ACID]	200 µM	200 µM
Cc1cccnc1NC(P(=O)(O)O)P(=O)(O)O	200 µM	200 µM
CN(CCCCc1ccccc1)CCCCC(O)(P(=O)(O)O)P(=O)(O)O	3 µM	23 µM
O=P(O)(O)CC(c1ccccn1)P(=O)(O)O (stereo not drawn)	200 µM	200 µM
O=P(O)(O)C(O)(Cc1ccncc1)P(=O)(O)O	200 µM	200 µM
Nc1ccc(CC(O)(P(=O)(O)O)P(=O)(O)O)cc1	200 µM	200 µM
O=P(O)(O)C(O)(C1CCC1)P(=O)(O)O [CYCLOBUTYL(HYDROXY)METHYLENEDIPHOSPHONIC ACID]	200 µM	200 µM
CCOP(=O)(OCC)C(Nc1cc(C)ccn1)P(=O)(OCC)OCC	200 µM	200 µM
CCCCCNC(P(=O)(O)O)P(=O)(O)O [(PENTYLAMINO)METHYLENEDIPHOSPHONIC ACID]	5 µM	200 µM
CCOP(=O)(OCC)C(Nc1ncccc1C)P(=O)(OCC)OCC	200 µM	200 µM
CN(C)CCC(O)(P(=O)(O)O)P(=O)(O)O [OLPADRONIC ACID]	200 µM	200 µM
O=P(O)(O)C(Nc1ccccn1)P(=O)(O)O	200 µM	200 µM
CCCNC(P(=O)(O)O)P(=O)(O)O [(PROPYLAMINO)METHYLENEDIPHOSPHONIC ACID]	200 µM	200 µM
CC(N)CC(O)(P(=O)(O)O)P(=O)(O)O (stereo not drawn)	200 µM	200 µM

Compound	IC50 (Plasmodium falciparum)	IC50 (Entamoeba histolytica)
O=P(O)(O)CC(c1ccncc1)P(=O)(O)O (stereo not drawn)	200 µM	200 µM
O=P(O)(O)C(N1CCC(O)CC1)P(=O)(O)O	200 µM	200 µM
Cc1ccnc(NC(P(=O)(O)O)P(=O)(O)O)c1	200 µM	200 µM
CCCCCCc1ccc(NC(P(=O)(O)O)P(=O)(O)O)cc1	103 µM	36 µM
O=P(O)(O)C(Nc1cc(Cl)cc(Cl)c1)P(=O)(O)O [(3,5-DICHLOROPHENYLAMINO)METHYLENEDIPHOSPHONIC ACID]	200 µM	200 µM
O=P(O)(O)C(O)(C1CC1)P(=O)(O)O [CYCLOPROPYL(HYDROXY)METHYLENEDIPHOSPHONIC ACID]	200 µM	200 µM
CCCCCN(C)CCC(O)(P(=O)(O)O)P(=O)(O)O [IBANDRONIC ACID]	59 µM	54 µM
O=P(O)(O)C(NCCc1ccccc1)P(=O)(O)O [(PHENETHYLAMINO)METHYLENEDIPHOSPHONIC ACID]	200 µM	200 µM
O=C(O)c1cn(C2CC2)c2cc(N3CCN(CC(P(=O)(O)O)P(=O)(O)O)CC3)c(F)cc2c1=O	200 µM	200 µM
O=P(O)(O)C(O)(CCCCNCCCCc1ccccc1)P(=O)(O)O	200 µM	21 µM
O=P(O)(O)C(Nc1ccc(Br)cn1)P(=O)(O)O	200 µM	44 µM
O=P(O)(O)C(Nc1cccnc1Cl)P(=O)(O)O	200 µM	200 µM
CCCCCC(C)CNC(P(=O)(O)O)P(=O)(O)O (stereo not drawn)	103 µM	65 µM
CCCCNC(P(=O)(O)O)P(=O)(O)O [(BUTYLAMINO)METHYLENEDIPHOSPHONIC ACID]	200 µM	200 µM
NCCCCCC(O)(P(=O)(O)O)P(=O)(O)O [NERIDRONIC ACID]	200 µM	200 µM
O=P(O)(O)C(O)(Cc1ccccc1)P(=O)(O)O	8 µM	200 µM
O=P(O)(O)C(N1CCSCC1)P(=O)(O)O [THIOMORPHOLINOMETHYLENEDIPHOSPHONIC ACID]	200 µM	200 µM
